# Where no end group is shown, it is not given here.
# Legend:
# [1] = test system: MCF 12A non-cancerous breast cell line; assay: Induction of apoptosis (APO-ONE caspase 3/7) and cell viability (CellTiter Blue); assay type: cell-based, human; design: key to Decline in cell viability: cell viability decreased (+); or not (−)
# Method: MCF-10A, MCF-12A were cultured in 50% DMEM plus 50% Ham's F12 modified with 2 mM L-glutamine, 1 mM sodium pyruvate, 0.01 mg/mL bovine insulin, 500 ng/mL hydrocortisone, 50 ug/mL of penicillin and streptomycin. The combined medium was supplemented with 5% (v/v) fetal bovine serum.
# (§1) The levels of apoptotic induction and cell viability were determined by multiplexing the measurements for single samples. CellTiter Blue and APO-ONE assay systems from Promega allows the determination of cell viability correlated to cell number, and induction of apoptosis. This protocol uses a fluorgenic peptide that contains a peptide recognition-sequence for caspase 3 and caspase 7, […] proteolytic enzymes of the apoptosis cascade. The CellTiter Blue reagent was added to wells in a 96-well plate containing cells under test, immediately after addition of peptide solution or vehicle. About 5000 cells were plated into the wells the day before. At the chosen time (Day 1, Day 2 etc.) the fluorescence was measured at 590 nm (emission) after excitation at 560 nm. The caspase 3/7 activity was measured (485 nm Ex/527 nm Em) in the same wells after adding 120 uL of the Apo-ONE reagent, freeze fracturing at −80° C. for 1 hr, and incubating for 1 hr at room temperature.
# (§2) For this work, the concentrations of SorC13 and SorC27 used were 0 uM, 1 uM, 10 uM and 100 uM. The experiments extended over a 5 to 7 day period. All measurements were done in quadruplicate with both a blank (no cells) and control (vehicle, no peptide) used to correct the test measurements. The time-response data, and the dose-response data were plotted as means±standard error of the mean. Any statistical comparisons were done with the Student's t-test or by ANOVA analysis over the dose course. The level of statistical significance was considered to be the 95% confidence interval (i.e., p≤0.05).
# [2] = test system: MDA-MB-415 (MB 415) breast cancer cell line; assay: as above; assay type: cell-based, human; design: key to Decline in cell viability: decreased (+); or not (−)
# Method: (§3) MCF-7, MDA-MB-231, MDA-MB-415, MDA-MB-468 were grown in DMEM modified with 10% (v/v) fetal bovine serum, 2 mM L-glutamine and 50 ug/mL each of penicillin and streptomycin.
# as §1, §2
# [3] = test system: MDA-MB-231 (MB 231) breast cancer cell line; assay: as above; assay type: cell-based, human; design: key to Decline in cell viability: decreased (+); or not (−)
# Method: as §3, §1, §2
# [4] = test system: MDA-MB-468 (MB 468) breast cancer cell line; assay: as above; assay type: cell-based, human; design: key: decreased (+); or not (−); details: SorC27
# Method: as §3, §1
# For this work, the concentrations of SorC13 and SorC27 used were 0 uM, 1 uM, 10 uM and 100 uM. The experiments extended over a 5 to 7 day period. […]
# Daudi = assay: Apoptosis and cell viability in Burkitt's lymphoma cell line (Example 11); assay type: cell-based, human; details: 0, 10 and 100 uM, 5 to 7 days
# Method: For this work, the concentrations of SorC13 and SorC27 used are 0 uM, 10 uM and 100 uM. The experiments extend over a 5 to 7 day period. All measurements are done in quadruplicate with both a blank (no cells) and control (vehicle, no peptide) used to correct the test measurements. The time-response data, and the dose-response data are plotted as means±standard error of the mean.
# The cell line Daudi (from ATCC CCL-213) is grown under the recommended conditions and in culture media recommended by ATCC. The cell lines were cultured under sterile conditions at 37° C., in a humidified 5% CO2 atmosphere.
# Induction of apoptosis and attendant decrease is observed in cell viability in the cancer cell lines. From the large increases in the activities of the caspase3/7 activity, it is clear that there is a time dependent effect and a dose dependent effect on the induction of apoptosis.
# [5] = test system: SKOV3 ovarian cancer xenografts; assay: SKOV3 ovarian cancer xenograft, SorC13 with CAT chemotherapy (Example 26); assay type: in vivo, NOD/SCID mice; details: day 12; SorC13 300 mg/kg i.p. Day 1 to 12
# Method: SorC13 stock solutions were prepared by dissolving the appropriate amounts of the compound in physiologically buffered saline (pH 7.0 at 25° C.) to comprise a final solution to deliver 300 mg/Kg mouse. Stock solutions were prepared weekly, stored at −20° C. and diluted fresh each day for dosing. All solutions were filter sterilized with a 0.22 mu filter prior to further manipulation. The filter sterilizer units were pre-washed with a small volume of sterile distilled water. […]
# To implant SKOV3 tumor cells into NOD/SCID mice, cell cultures were centrifuged to pellet the cells, the supernatant was aspirated, the cell pellet resuspended in 10 ml of growth media and the cell number was determined using a hemocytometer. […]
# Tumor volumes (V) were calculated by caliper measurement using standard measurements of the width (W), length (L) and thickness (T) of tumors. […] Percentage ΔT/ΔC values, as a measure of efficacy, were determined where ΔC refers to change in volume of control or untreated tumor, and ΔT refers to change in volume of treated tumor.
# Animals were intraperitoneally (i.p.) injected with the vehicular control, or the low, medium or high doses of CAT or CAT and SorC13. […] The tumor volume and body weights were measured every day. As well, general health of the animals was monitored every day.
sequence,measurement,setting,value
EGKLSSNDTEGGLCKEFLHPSKVDLPR [SorC27],Apoptosis Index (1 = no effect),[1]; SorC27 100 μM,1.0
same,Decline in cell viability,[1]; SorC27 100 μM,−
same,Decline in cell viability,[2]; SorC27,+
same,Apoptosis Index (1 = no effect),[2]; SorC27 10 μM,1.3
same,Apoptosis Index (1 = no effect),[2]; SorC27 100 μM,1.5
same,Apoptosis Index (1 = no effect),"[3]; Day 3, SorC27 10 μM",1.5
same,Apoptosis Index (1 = no effect),"[3]; Day 3, SorC27 100 μM",1.7
same,Decline in cell viability,[3]; SorC27,+
same,Decline in cell viability,[4],+
same,induction of apoptosis and cell viability,Daudi,induces apoptosis and decreases cell viability
"KEFLHPSKVDLPR [SorC13, KEFLHPSKVDLPR]",% ΔT/ΔC (tumour volume normalized to control volume),[5],47.6%
same,Mean tumor volume,[5],116.8 mm^3
same,Apoptosis Index (1 = no effect),[1]; SorC13 100 uM,1.0
same,Decline in cell viability,[1]; SorC13 100 uM,−
same,induction of apoptosis and cell viability,Daudi,induces apoptosis and decreases cell viability
